Data from the supplement of paper PMC10307832.

Assays:
Assay in all cases: relative viability (nuclei count vs DMSO), 5 days (fraction); higher = more cells survive
[1] = compound: O=C(Nc1cccc(C(F)(F)F)c1)Nc1cc(S(=O)(=O)NC2CC2)ccc1-c1ccsc1 [AGI-6780] + CS(=O)(=O)N1CCN(Cc2cc3nc(-c4cccc5[nH]ncc45)nc(N4CCOCC4)c3s2)CC1 [Pictilisib] (partner 1 µM)
How it was run: (§1)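 Relative viability was taken as the ratio of nuclei in treated wells to nuclei in vehicle wells. Lung cancer cell lines in 1536-well plates received compounds by pin tool one day after seeding, either one drug alone or a fixed anchor-drug dose plus five library-drug doses (not always all listed) in √10 steps. Nuclei were counted on 4× images after 5 days of treatment, and values are medians of duplicate plates.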

[2] = compound: O=C(Nc1cccc(C(F)(F)F)c1)Nc1cc(S(=O)(=O)NC2CC2)ccc1-c1ccsc1 [AGI-6780] + C[C@@H](Oc1cc(-c2cnn(C3CCNCC3)c2)cnc1N)c1c(Cl)ccc(F)c1Cl [Crizotinib] (partner 1 µM)
How it was run: as §1

[3] = compound: O=C(Nc1cccc(C(F)(F)F)c1)Nc1cc(S(=O)(=O)NC2CC2)ccc1-c1ccsc1 [AGI-6780] + Cc1nc(Nc2ncc(C(=O)Nc3c(C)cccc3Cl)s2)cc(N2CCN(CCO)CC2)n1 [Dasatinib] (partner 0.075 µM)
How it was run: as §1

[4] = compound: O=C(Nc1cccc(C(F)(F)F)c1)Nc1cc(S(=O)(=O)NC2CC2)ccc1-c1ccsc1 [AGI-6780] + O=C(CCCCCCC(=O)Nc1ccccc1)NO [Vorinostat] (partner 1 µM)
How it was run: as §1

Cell Line	relative viability ([1]; first compound 0.08 µM)	relative viability ([1]; first compound 0.253 µM)	relative viability ([1]; first compound 0.8 µM)	relative viability ([1]; first compound 2.53 µM)	relative viability ([1]; first compound 8 µM)	relative viability ([2]; first compound 0.08 µM)	relative viability ([2]; first compound 0.253 µM)	relative viability ([2]; first compound 0.8 µM)	relative viability ([2]; first compound 2.53 µM)	relative viability ([2]; first compound 8 µM)	relative viability ([3]; first compound 0.08 µM)	relative viability ([3]; first compound 0.253 µM)	relative viability ([3]; first compound 0.8 µM)	relative viability ([3]; first compound 2.53 µM)	relative viability ([3]; first compound 8 µM)	relative viability ([4]; first compound 0.08 µM)	relative viability ([4]; first compound 0.253 µM)	relative viability ([4]; first compound 0.8 µM)	relative viability ([4]; first compound 2.53 µM)	relative viability ([4]; first compound 8 µM)
HCC-366	0.185	0.111	0.108	0.15	0.175	0.606	0.56	0.445	0.335	0.374	0.678	0.608	0.684	0.245	0.556	0.355	0.315	0.346	0.285	0.446
HCC-827	0.896	0.916	1.03	0.856	0.823	0.965	0.9	0.861	0.981	0.943	0.363	0.23	0.337	0.273	0.293	0.983	0.849	0.896	0.802	1
HOP-62	0.815	0.928	0.88	0.651	0.786	0.857	0.919	0.971	0.731	0.502	0.713	0.642	0.633	0.634	0.63	0.61	0.833	0.655	0.617	0.813
IA-LM	0.452	0.38	0.39	0.301	0.476	1.12	0.76	1.09	0.827	0.876							0.857	1.06	1.04	0.778
LC-2-ad	0.598	0.726	0.532	0.381	0.456	0.579	0.491	0.467	0.412	0.508	0.604	0.573	0.677	0.482	0.515	0.754	0.72	0.776	0.661	0.726
LCLC-97TM1	0.195	0.218	0.257		0.245	0.417	0.48	0.668		0.344	0.881	0.887	0.868	0.654	0.817	0.739	0.886	0.785	0.572	0.598
LCLC-103H	0.582	0.681	0.516	0.457	0.663	1.08	1.12	1	1.03	1.01	0.462	0.565	0.51	0.318	0.503	0.746	0.861	0.759	0.576	0.781
LK-2	0.413	0.461	0.601		0.505	0.262	0.209	0.271		0.211	0.242	0.298	0.286		0.315	0.334	0.286	0.347	0.259	0.567
LOU-NH91	0.524	0.529	0.554	0.505	0.525	0.753	0.764	0.712	0.705	0.715	0.533	0.516	0.553	0.531	0.558	0.954	0.92	0.953	0.926	0.913
LU99A	0.396	0.339	0.339	0.273	0.317	0.606	0.484	0.627	0.473	0.669	0.52	0.58	0.689	0.401	0.629	0.568	0.461	0.502	0.335	0.466
LXF-289	0.827	0.803	0.766	0.741	0.827	0.84	0.798	0.795	0.83	0.771	0.228	0.213	0.192	0.155	0.204	0.858	0.788	0.736	0.843	0.778
NCI-H23	0.614	0.571	0.624	0.437	0.609	0.56	0.633	0.629	0.539	0.544	0.922	0.701	0.752	0.378	0.735	0.61	0.74	0.735	0.614	0.508
NCI-H522											0.941	0.85	1.01	0.812	0.836	0.922	0.946	1.05		0.825
NCI-H1299	0.781	0.733	0.639	0.765	0.742	0.995	0.956	1.01	0.945	0.941										
NCI-H1395	0.638	0.626	0.574		0.65						0.403	0.478	0.428	0.36	0.376	0.714	0.726	0.826	0.618	0.701
NCI-H1563	0.621	0.629	0.628	0.614	0.519	0.943	0.827	0.828	0.858	0.903	0.51	0.51	0.459	0.459	0.459					
NCI-H1648																0.377	0.689	0.566	0.423	0.419
NCI-H1703	0.336	0.197	0.259	0.223	0.248	0.906	0.612	1.11	0.665	0.824										
NCI-H1792	0.302	0.279	0.281	0.245	0.242	0.836	0.993	1.07	0.931	0.989		0.859	0.663	0.719	0.728					
NCI-H1793	0.272	0.364	0.351	0.344	0.303						0.399	0.389	0.455	0.263	0.41	0.69	0.807	0.797	0.666	0.685
NCI-H2342											0.3	0.369	0.34	0.302	0.317	0.749	0.824	0.874	0.663	1.1
